For assay [1], the target named is RAF proto-oncogene serine/threonine-protein kinase (Homo sapiens) (UniProt P04049). The experiment in a line: Inhibition of RAF1 (unknown origin) assessed as residual activity at 100 nM by KINOMEscan analysis relative to control.
The target of assay [2] is Misshapen-like kinase 1 (Homo sapiens) (UniProt Q8N4C8). The assay is described as follows: Inhibition of MINK (unknown origin) assessed as residual activity at 100 nM by KINOMEscan analysis relative to control.
For assay [3], the target named is NT-3 growth factor receptor (Homo sapiens) (UniProt Q16288). The experiment in a line: Inhibition of TRKC (unknown origin) assessed as residual activity at 100 nM by KINOMEscan analysis relative to control.
Sequence of NT-3 growth factor receptor (Homo sapiens) (Q16288 32-839 limits assumed): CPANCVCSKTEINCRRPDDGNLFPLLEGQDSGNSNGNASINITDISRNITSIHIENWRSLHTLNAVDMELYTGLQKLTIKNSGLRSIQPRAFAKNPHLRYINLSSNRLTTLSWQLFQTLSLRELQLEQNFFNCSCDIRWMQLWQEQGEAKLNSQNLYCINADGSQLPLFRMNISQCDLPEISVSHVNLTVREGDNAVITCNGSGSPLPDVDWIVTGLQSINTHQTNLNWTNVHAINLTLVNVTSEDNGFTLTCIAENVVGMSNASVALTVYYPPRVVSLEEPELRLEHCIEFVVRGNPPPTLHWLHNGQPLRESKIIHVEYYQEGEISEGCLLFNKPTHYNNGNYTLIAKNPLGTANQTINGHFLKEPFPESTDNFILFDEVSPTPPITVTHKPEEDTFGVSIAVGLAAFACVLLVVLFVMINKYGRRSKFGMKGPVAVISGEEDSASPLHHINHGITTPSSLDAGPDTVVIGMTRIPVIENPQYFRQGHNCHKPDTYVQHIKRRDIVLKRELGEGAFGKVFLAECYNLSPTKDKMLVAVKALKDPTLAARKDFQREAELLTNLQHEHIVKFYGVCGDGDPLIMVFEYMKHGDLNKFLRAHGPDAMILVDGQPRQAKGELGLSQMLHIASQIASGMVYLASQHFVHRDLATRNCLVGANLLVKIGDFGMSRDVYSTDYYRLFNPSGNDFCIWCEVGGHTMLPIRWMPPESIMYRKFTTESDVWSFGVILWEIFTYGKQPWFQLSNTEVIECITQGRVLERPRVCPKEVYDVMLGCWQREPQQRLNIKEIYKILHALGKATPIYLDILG
The target in assay [4] is T1, Serine/threonine-protein kinase D3 (Homo sapiens) (UniProt O94806).
T1 sequence (whole entry): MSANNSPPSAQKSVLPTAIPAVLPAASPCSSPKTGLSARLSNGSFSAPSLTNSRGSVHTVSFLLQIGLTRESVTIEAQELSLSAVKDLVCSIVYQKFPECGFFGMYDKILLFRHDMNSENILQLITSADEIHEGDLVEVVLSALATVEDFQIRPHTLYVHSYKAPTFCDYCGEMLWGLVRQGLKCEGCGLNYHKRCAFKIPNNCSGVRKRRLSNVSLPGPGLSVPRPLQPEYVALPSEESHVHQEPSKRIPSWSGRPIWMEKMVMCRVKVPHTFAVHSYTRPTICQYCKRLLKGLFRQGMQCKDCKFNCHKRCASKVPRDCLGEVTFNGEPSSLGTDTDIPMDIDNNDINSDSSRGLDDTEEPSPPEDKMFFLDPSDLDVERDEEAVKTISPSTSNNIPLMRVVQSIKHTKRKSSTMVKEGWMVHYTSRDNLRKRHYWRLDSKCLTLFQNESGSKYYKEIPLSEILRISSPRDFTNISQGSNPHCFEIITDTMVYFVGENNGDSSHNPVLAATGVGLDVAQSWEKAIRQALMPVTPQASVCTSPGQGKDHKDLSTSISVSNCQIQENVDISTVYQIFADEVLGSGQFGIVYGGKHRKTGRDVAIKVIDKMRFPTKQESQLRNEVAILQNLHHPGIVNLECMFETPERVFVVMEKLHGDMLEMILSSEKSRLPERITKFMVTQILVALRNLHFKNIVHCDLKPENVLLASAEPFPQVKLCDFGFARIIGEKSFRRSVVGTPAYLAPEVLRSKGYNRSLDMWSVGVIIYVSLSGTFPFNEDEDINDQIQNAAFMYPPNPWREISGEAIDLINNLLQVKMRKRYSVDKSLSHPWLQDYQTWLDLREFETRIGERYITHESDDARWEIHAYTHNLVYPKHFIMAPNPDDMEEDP
The experiment in a line: Inhibition of PRKD3 (unknown origin) assessed as residual activity at 100 nM by KINOMEscan analysis relative to control.

Assay [5] deals with Non-receptor tyrosine-protein kinase TYK2 (Homo sapiens) (UniProt P29597). The assay is described as follows: Inhibition of TYK2 JH2 pseudokinase domain (unknown origin) assessed as residual activity at 100 nM by KINOMEscan analysis relative to control.
Assay [6] has as its target T2, Dual specificity mitogen-activated protein kinase kinase 3 (Homo sapiens) (UniProt P46734).
T2 sequence (whole entry): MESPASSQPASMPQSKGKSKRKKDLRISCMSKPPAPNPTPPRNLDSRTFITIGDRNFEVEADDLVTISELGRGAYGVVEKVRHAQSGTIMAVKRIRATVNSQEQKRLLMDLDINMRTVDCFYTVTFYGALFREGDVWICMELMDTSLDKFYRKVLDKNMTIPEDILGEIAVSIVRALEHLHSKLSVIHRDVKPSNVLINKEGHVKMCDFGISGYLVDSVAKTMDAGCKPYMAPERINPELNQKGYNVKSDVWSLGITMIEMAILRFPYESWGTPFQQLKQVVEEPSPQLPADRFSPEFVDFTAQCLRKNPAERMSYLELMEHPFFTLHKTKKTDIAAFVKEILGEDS
The assay is described as follows: Inhibition of MEK3 (unknown origin) assessed as residual activity at 100 nM by KINOMEscan analysis relative to control.

Assay [7] has as its target Mitogen-activated protein kinase 7 (Homo sapiens) (UniProt Q13164). The assay is described as follows: Inhibition of ERK5 (unknown origin) assessed as residual activity at 100 nM by KINOMEscan analysis relative to control.
Assay [8] has as its target Ribosomal protein S6 kinase alpha-3 (Homo sapiens) (UniProt P51812). The experiment in a line: Inhibition of N-terminal RSK2 kinetic domain 1 (unknown origin) assessed as residual activity at 100 nM by KINOMEscan analysis relative to control.
The target of assay [9] is Mitogen-activated protein kinase kinase kinase 11 (Homo sapiens) (UniProt Q16584). The assay is described as follows: Inhibition of MLK3 (unknown origin) assessed as residual activity at 100 nM by KINOMEscan analysis relative to control.
The species named for another assay is Homo sapiens. The experiment in a line: Inhibition of N-terminal GST-tagged recombinant human SOS1 N879A mutant (564 to 1049 residues) expressed in Escherichia coli assessed as reduction in KRAS G12C mutant activation at 10 uM by HTRF analysis relative to control. Background: TR-FRET usually uses a lanthanide donor and a delayed reading to cut background.
Assay [10] deals with Serine/threonine-protein kinase 16 (Homo sapiens) (UniProt O75716). The experiment in a line: Inhibition of STK16 (unknown origin) assessed as residual activity at 100 nM by KINOMEscan analysis relative to control.
Sequence of Serine/threonine-protein kinase 16 (Homo sapiens) (O75716 whole entry): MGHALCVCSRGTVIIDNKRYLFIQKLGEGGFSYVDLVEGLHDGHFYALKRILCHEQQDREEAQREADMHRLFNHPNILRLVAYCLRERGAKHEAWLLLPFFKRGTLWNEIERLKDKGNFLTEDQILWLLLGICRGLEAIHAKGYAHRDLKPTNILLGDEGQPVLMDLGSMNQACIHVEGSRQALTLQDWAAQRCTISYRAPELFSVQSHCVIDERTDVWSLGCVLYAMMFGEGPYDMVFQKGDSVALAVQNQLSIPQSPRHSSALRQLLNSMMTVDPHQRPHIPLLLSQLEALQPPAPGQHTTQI
Assay [11] deals with T3, Serine/threonine-protein kinase Chk1 (Homo sapiens) (UniProt O14757).
T3 sequence (whole entry): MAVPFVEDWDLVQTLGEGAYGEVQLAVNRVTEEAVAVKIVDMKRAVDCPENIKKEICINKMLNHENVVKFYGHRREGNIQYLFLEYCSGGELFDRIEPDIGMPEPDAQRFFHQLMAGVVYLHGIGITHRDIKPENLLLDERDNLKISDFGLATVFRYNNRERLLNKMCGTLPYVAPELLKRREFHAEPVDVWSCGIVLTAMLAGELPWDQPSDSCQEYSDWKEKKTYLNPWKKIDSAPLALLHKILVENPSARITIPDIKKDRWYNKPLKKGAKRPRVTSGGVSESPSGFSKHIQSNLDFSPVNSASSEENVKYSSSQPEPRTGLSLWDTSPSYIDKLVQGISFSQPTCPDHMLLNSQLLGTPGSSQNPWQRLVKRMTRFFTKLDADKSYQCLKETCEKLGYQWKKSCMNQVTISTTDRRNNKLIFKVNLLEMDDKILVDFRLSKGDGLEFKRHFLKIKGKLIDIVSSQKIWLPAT
The experiment in a line: Inhibition of CHEK1 (unknown origin) assessed as residual activity at 100 nM by KINOMEscan analysis relative to control.

In assay [12] the target is Dual specificity mitogen-activated protein kinase kinase 2 (Homo sapiens) (UniProt P36507). The experiment in a line: Inhibition of MEK2 (unknown origin) assessed as residual activity at 100 nM by KINOMEscan analysis relative to control.
Sequence of Dual specificity mitogen-activated protein kinase kinase 2 (Homo sapiens) (P36507 whole entry, the tested form may be a part): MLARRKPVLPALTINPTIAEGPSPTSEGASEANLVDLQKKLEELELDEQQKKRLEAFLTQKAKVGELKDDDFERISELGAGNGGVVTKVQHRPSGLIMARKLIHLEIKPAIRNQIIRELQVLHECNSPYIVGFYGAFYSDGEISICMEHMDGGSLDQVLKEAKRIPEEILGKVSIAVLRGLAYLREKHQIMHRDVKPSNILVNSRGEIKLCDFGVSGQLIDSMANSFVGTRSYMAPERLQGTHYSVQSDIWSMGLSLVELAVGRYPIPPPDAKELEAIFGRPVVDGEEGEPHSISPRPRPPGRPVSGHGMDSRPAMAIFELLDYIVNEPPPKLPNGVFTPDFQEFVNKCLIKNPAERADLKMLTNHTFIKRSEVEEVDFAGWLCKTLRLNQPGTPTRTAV
Assay [13] deals with Phosphatidylinositol 4-phosphate 3-kinase C2 domain-containing subunit beta (Homo sapiens) (UniProt O00750). The assay is described as follows: Inhibition of PIK3C2B (unknown origin) assessed as residual activity at 100 nM by KINOMEscan analysis relative to control.
Sequence of Phosphatidylinositol 4-phosphate 3-kinase C2 domain-containing subunit beta (Homo sapiens) (O00750 whole entry, the tested form may be a part): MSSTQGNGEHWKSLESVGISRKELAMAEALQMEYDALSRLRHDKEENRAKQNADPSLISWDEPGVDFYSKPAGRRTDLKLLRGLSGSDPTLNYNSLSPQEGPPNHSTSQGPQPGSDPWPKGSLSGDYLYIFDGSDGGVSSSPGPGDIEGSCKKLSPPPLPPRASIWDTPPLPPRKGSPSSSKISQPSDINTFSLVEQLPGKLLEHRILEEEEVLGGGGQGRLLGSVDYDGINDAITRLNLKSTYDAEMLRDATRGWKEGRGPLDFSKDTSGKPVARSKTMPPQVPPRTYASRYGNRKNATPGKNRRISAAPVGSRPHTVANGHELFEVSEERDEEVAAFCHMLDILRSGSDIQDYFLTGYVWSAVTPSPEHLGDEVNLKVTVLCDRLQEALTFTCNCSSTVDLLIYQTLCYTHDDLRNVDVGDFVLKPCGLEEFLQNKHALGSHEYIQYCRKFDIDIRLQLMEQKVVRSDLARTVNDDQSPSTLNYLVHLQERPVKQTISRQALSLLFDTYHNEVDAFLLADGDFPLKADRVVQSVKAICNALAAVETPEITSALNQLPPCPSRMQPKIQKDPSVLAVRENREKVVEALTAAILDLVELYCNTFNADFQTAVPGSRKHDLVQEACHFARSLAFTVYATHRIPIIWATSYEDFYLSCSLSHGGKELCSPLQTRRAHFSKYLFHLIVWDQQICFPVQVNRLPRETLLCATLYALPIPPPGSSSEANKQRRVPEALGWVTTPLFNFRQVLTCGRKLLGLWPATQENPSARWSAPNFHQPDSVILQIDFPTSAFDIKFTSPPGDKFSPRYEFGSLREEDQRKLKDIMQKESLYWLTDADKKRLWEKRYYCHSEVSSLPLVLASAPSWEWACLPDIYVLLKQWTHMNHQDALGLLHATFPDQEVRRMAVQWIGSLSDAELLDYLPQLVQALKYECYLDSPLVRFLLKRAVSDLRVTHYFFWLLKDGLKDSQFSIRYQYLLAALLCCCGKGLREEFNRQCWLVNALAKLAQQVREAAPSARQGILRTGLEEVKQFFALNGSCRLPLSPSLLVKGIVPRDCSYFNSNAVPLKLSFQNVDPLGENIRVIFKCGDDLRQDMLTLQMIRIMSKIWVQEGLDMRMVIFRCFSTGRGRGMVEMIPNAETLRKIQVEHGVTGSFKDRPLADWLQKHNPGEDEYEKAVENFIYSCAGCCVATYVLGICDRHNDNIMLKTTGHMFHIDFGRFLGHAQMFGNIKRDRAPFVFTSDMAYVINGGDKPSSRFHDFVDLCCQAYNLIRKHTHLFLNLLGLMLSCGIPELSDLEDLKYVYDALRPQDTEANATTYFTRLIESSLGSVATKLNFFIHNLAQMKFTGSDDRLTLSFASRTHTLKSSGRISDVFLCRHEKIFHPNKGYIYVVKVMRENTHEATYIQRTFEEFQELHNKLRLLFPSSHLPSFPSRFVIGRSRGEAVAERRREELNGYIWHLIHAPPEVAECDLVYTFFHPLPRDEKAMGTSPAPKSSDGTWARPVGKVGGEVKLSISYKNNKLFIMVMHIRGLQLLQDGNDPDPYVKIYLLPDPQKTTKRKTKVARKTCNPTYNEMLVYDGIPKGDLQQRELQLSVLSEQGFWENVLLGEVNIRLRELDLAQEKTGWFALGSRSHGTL

Among the data in ChEMBL document CHEMBL5678818, “Discovery of potent SOS1 inhibitors that block RAS activation via disruption of the RAS-SOS1 interaction” (Proc Natl Acad Sci U S A, 2019) are Activity and inhibition values, retold here.

In general, inhibition refers to how much of the control response was suppressed.

Sequence of Ribosomal protein S6 kinase alpha-3 (Homo sapiens) (P51812 whole entry, the tested form may be a part): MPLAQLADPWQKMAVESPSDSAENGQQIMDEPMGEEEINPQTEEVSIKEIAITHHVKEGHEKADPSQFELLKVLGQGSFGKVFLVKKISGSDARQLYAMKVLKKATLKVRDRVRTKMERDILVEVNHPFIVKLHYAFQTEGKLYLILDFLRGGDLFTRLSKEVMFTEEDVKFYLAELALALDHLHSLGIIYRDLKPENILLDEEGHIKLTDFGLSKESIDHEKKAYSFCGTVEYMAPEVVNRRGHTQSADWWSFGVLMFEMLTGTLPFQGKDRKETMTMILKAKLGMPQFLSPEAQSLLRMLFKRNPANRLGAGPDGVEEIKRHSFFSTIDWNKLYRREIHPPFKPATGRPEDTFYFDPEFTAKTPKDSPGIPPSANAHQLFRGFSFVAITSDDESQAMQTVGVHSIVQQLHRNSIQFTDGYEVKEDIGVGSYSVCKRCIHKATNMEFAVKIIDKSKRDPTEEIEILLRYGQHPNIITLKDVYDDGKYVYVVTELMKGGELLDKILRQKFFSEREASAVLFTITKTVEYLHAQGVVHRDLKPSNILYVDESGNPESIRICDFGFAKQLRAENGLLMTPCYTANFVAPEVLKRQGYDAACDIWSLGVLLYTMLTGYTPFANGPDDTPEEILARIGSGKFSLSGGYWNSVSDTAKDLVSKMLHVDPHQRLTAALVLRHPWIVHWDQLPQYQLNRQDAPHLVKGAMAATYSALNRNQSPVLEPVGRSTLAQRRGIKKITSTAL
Sequence of Mitogen-activated protein kinase 7 (Homo sapiens) (Q13164 2-816 limits assumed): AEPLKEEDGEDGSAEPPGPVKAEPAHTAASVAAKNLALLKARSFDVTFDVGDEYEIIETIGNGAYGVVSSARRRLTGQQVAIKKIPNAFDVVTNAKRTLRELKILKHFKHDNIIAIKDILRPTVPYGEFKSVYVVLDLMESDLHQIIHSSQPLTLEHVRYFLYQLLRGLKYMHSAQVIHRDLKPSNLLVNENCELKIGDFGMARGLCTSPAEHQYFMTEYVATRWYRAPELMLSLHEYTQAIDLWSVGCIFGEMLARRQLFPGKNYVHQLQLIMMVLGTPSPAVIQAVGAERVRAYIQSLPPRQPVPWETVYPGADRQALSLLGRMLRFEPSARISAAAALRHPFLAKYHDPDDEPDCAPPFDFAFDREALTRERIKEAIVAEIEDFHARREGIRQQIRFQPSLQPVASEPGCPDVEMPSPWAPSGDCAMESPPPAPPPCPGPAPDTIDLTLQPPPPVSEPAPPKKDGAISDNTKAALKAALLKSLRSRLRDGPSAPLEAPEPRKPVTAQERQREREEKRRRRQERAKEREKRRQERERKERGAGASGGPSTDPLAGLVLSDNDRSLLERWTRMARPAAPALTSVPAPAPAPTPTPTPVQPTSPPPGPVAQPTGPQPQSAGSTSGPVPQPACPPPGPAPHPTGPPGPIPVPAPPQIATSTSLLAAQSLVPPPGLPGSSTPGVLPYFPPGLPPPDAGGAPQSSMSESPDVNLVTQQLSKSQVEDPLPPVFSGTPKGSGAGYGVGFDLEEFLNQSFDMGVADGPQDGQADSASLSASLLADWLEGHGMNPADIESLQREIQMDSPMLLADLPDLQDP

As to `COc1cc2ncnc(N[C@H](C)c3cccc4ccccc34)c2cc1OC`, the Activity came to 85% in assay [1]; 77% in assay [2]; 89% in assay [3]; 100% in [4]; 100% in [5]; 90% in assay [6]. For the same compound, the Activity in [7] turned out to be 84%; in assay [8], 70%; in [9], 100%; in assay [10], 93%; in assay [11], 100%; in assay [12] it was 90%. Further, the Activity in [13] is 81%. Moreover, the inhibition in the assay filed under Homo sapiens worked out at 37%.
